The source of these data is ChEMBL document CHEMBL1153358, “Amide analogs of antifungal dioxane-triazole derivatives: synthesis and in vitro activities” (Bioorg Med Chem Lett, 2009).

In general, MIC refers to the least concentration at which growth counts as inhibited. A high value points to weaker potency. By half-life is commonly meant the time in which the quantity being followed falls by half.

In brackets after ≈: the same amount, converted by molar mass.

The test system of one data set is Candida parapsilosis. The data set is described as follows: Antifungal activity against Candida parapsilosis ATCC 90018. To be noted: Lodderomyces parapsilosis. The data set is classed as functional.
Data set [1] has as its system Candida albicans. The data set is described as follows: Antifungal activity against Candida albicans ATCC 64550. The data set is classed as functional.
Data set [2] can be described thus: Chemical stability assessed as half life in HCl. The data set is classed as physicochemical.
Data set [3] concerns Aspergillus fumigatus. The data set is described as follows: Antifungal activity against Aspergillus fumigatus SANK 10569. The data set is classed as functional.
The test system of the next data set is Cryptococcus neoformans. The data set is described as follows: Antifungal activity against Cryptococcus neoformans TIMM 1855. The data set is classed as functional.
A further data set concerns Pichia kudriavzevii. The data set is described as follows: Antifungal activity against Candida krusei ATCC 6258. The data set is classed as functional.
A further data set has as its system Nakaseomyces glabratus. The data set is described as follows: Antifungal activity against Candida glabrata ATCC 90030. The data set is classed as functional.
For data set [4], the system named is Candida albicans. The data set is described as follows: Antifungal activity against Candida albicans ATCC 24433. The data set is classed as functional.
The next data set has as its system Aspergillus flavus. The data set is described as follows: Antifungal activity against Aspergillus flavus SANK 18497. In kind it is functional.
The next data set has as its system Candida tropicalis. The data set is described as follows: Antifungal activity against Candida tropicalis ATCC 750. In kind it is functional.
Data set [5] in a line: Bioavailability in rat at 20 mg/kg, po. The data set is classed as ADME, organism-based. To be noted: in vivo.
In data set [6] the test system is Aspergillus fumigatus. The data set is described as follows: Antifungal activity against Aspergillus fumigatus ATCC 26430. In kind it is functional.
Data set [7] concerns Candida albicans. The data set is described as follows: Antifungal activity against fluconazole-resistant Candida albicans TIMM3164. In kind it is functional.
Data set [8] deals with Candida albicans. The data set is described as follows: Antifungal activity against Candida albicans SANK 51486. The data set is classed as functional.

For the compound `C[C@@H](S[C@H]1CO[C@H](c2ccc(C(=O)Nc3ccc(C#N)cc3)cc2)OC1)[C@](O)(Cn1cncn1)c1ccc(F)cc1F`, the MIC against Candida parapsilosis was at most 0.008 µg/mL; with Candida albicans [1] it was 0.25 µg/mL (≈ 0.423 µM); with Aspergillus fumigatus [3], 0.031 µg/mL (≈ 0.0524 µM); in the data set on Cryptococcus neoformans, 0.031 µg/mL (≈ 0.0524 µM); with Pichia kudriavzevii it was 0.063 µg/mL (≈ 0.106 µM); with Nakaseomyces glabratus it was 2 µg/mL (≈ 3.38 µM). In addition, the MIC against Candida albicans [4] was at most 0.008 µg/mL; in the data set with Aspergillus flavus, 0.125 µg/mL (≈ 0.211 µM); in the data set on Candida tropicalis, 0.016 µg/mL (≈ 0.027 µM); with Aspergillus fumigatus [6], 0.031 µg/mL (≈ 0.0524 µM); in the data set on Candida albicans [7], at most 0.008 µg/mL; in the data set on Candida albicans [8], at most 0.008 µg/mL. The half-life in data set [2] amounted to 2.67 h. For the same compound, in data set [5], the bioavailability was 31.7%.
In the case of `C[C@@H](S[C@H]1CO[C@H](/C=C/C=C/c2ccc(C#N)cc2F)OC1)[C@](O)(Cn1cncn1)c1ccc(F)cc1F` [EMBECONAZOLE], the MIC turned out to be 0.016 µg/mL (≈ 0.0295 µM) in the data set with Candida parapsilosis; 0.5 µg/mL (≈ 0.922 µM) with Candida albicans [1]; 0.063 µg/mL (≈ 0.116 µM) against Aspergillus fumigatus [3]; 0.016 µg/mL (≈ 0.0295 µM) in the data set on Cryptococcus neoformans; 0.25 µg/mL (≈ 0.461 µM) in the data set with Pichia kudriavzevii; 1 µg/mL (≈ 1.84 µM) against Nakaseomyces glabratus. The minimum inhibitory concentration (MIC) is 0.016 µg/mL (≈ 0.0295 µM) against Candida albicans [4]; 0.25 µg/mL (≈ 0.461 µM) in the data set on Aspergillus flavus; 0.25 µg/mL (≈ 0.461 µM) in the data set on Candida tropicalis; 0.063 µg/mL (≈ 0.116 µM) against Aspergillus fumigatus [6]; 0.063 µg/mL (≈ 0.116 µM) against Candida albicans [7]; at most 0.008 µg/mL against Candida albicans [8]. Besides, in data set [2], the half-life was 0.107 h. Moreover, in data set [5], the bioavailability was 113%.
As to `CCC(C)n1ncn(-c2ccc(N3CCN(c4ccc(OCC5COC(Cn6cncn6)(c6ccc(Cl)cc6Cl)O5)cc4)CC3)cc2)c1=O` (stereo not given) [ITRACONAZOLE], the MIC is 0.125 µg/mL (≈ 0.177 µM) against Candida parapsilosis; 1 µg/mL (≈ 1.42 µM) against Candida albicans [1]; 0.25 µg/mL (≈ 0.354 µM) in the data set with Aspergillus fumigatus [3]; 0.25 µg/mL (≈ 0.354 µM) against Cryptococcus neoformans; 0.5 µg/mL (≈ 0.709 µM) in the data set on Pichia kudriavzevii; 1 µg/mL (≈ 1.42 µM) with Nakaseomyces glabratus. Besides, the MIC is 0.125 µg/mL (≈ 0.177 µM) against Candida albicans [4]; 0.5 µg/mL (≈ 0.709 µM) with Aspergillus flavus; 0.5 µg/mL (≈ 0.709 µM) with Candida tropicalis; 0.25 µg/mL (≈ 0.354 µM) with Aspergillus fumigatus [6]; 0.25 µg/mL (≈ 0.354 µM) against Candida albicans [7]; 0.031 µg/mL (≈ 0.0439 µM) with Candida albicans [8].
